Structures can show the parent of a compound that is named as a salt. Where two headings read alike, the source gives them in different places.
How the values were obtained:
[1] = Solubility in organic solvents; assay type: physicochemical; settings: for solubility: organic solvent or mixture
Solubility in water = assay type: physicochemical
[2] = system: Granular cell cultures from mouse cerebellum exposed to Glu; test: Neuroprotective effect against excitotoxicity of Glu in primary neuronal cultures (cell survival, MTT); assay type: cell-based; settings: 24 h
Procedure: In vitro evaluation of the neuroprotective effect against excitotoxicity of Excitatory Amino Acids in primary neuronal cultures of the following compounds was carried out:
The compounds under evaluation, referred to as a, b, c, and d, were solubilized in DMSO and culture medium to obtain concentrations of 100 μM (4% DMSO) and 60 μM (3% DMSO) and added to the culture mediums according to different treatment schedules in order to determine the time-effect relationship vs. the incubation time and the exposure to the neurotoxic stimulus.
Granular cell cultures were obtained from postnatal day 8-9 mouse Balb-6 cerebellum. The cells were suspended in EBM+2 mM L-glutamine, 100 U/ml penicillin, […], 25 mM KCl and 10% fetal calf serum, plated on polylysine substrate, cultured for 8-10 days and then exposed to Glu 500 μM at room temperature for 5 min. The compounds being evaluated were added to the cultures at the same time of exposure, soon after exposure or 15 min after exposure to Glu, and cultured for 60 minutes; cultures were then washed and brought back to the original medium. The number of survived cells was evaluated by […] method (MTT) 24 hours after excitotoxic stimulation.

[3] = n-octanol, read-out: solubility in n-octanol
[4] = A: compound added at the same time of exposure to Glu (500 μM, 5 min), 60 μM, % of control values, average of three tests, Glu alone 44, read-out: survived cells (%), treatment A, 60 μM
[5] = A: compound added at the same time of exposure to Glu (500 μM, 5 min), % of control values, average of three tests, Glu alone 40, read-out: survived cells (%), treatment A, 100 μM
[6] = B: compound added soon after exposure to Glu (500 μM, 5 min), % of control values, average of three tests, Glu alone 40, read-out: survived cells (%), treatment B, 100 μM
[7] = C: compound added 15 min after exposure to Glu (500 μM, 5 min), 60 μM, % of control values, average of three tests, Glu alone 44, read-out: survived cells (%), treatment C, 60 μM
[8] = C: compound added 15 min after exposure to Glu (500 μM, 5 min), % of control values, average of three tests, Glu alone 40, read-out: survived cells (%), treatment C, 100 μM
[9] = dmso, read-out: solubility in DMSO
[10] = aqueous buffer, 50 mM phosphate buffer, pH 7.4, NaCl 0.9%, read-out: solubility in water: 50 mM phosphate buffer

For `CCCCCCCCCCCCCCCC(=O)NCCOC(C)=O` [Example 2, N-(2-Acetoxyethyl)-Palmitoylamide], the solubility [1, 3] was > 5000 µg/mL and the “solubility in water” value (Solubility in water; water) was “poorly soluble”.

Molecule `CCCCCCCCCCCCCCCC(=O)NCCO` [Example 1, N-(2-Hydroxyethyl)-Palmitoylamide] has a viability at 60 µM [2, 4] of 86%, a viability at 100 µM [2, 5] of 67% and a viability at 100 µM [2, 6] of 84%. The viability at 60 µM [2, 7] was 101%, the viability at 100 µM [2, 8] was 76% and the “solubility in organic solvents” value [1] was “hot methanol, CH3 Cl, DMSO”. For the same molecule, the “solubility in water” value (Solubility in water; water) was “insoluble”.

For `CC(=O)OCCNC(=O)/C=C/C(=O)NCCOC(C)=O` [Example 4, N,N'-Bis(2-Acetoxyethyl)-Fumaroylamide], the solubility [1, 9] was > 10000 µg/mL and the “solubility in water” value (Solubility in water; water) was “poorly soluble”.

For `O=C(/C=C/CCCCCCCCC(=O)NCCOP(=O)(O)O)NCCOP(=O)(O)O` [Example 6, N,N'-Bis(2-Hydroxyethyl)-Dodecenediamide Diphosphate Disodium Salt], the solubility ([1]; DMSO, product in acid form, read-out: solubility in DMSO (product in acid form)) was > 10000 µg/mL and the solubility (Solubility in water; water, read-out: solubility in water) was > 10000 µg/mL.

With `O=C(O)CCC(=O)OCCNC(=O)C=CCCCCCCCCC(=O)NCCOC(=O)CCC(=O)O` [Example 8, N,N'-Bis(2-Hydroxyethyl)-Dodecenediamide Disuccinate Acid] the solubility [1, 9] was > 10000 µg/mL, the solubility (Solubility in water; [10]) was > 1000 µg/mL and the “solubility in water” value (Solubility in water; water) was “poorly soluble”.

Molecule `CCCCCCCCCCCCCCCC(=O)NCCOP(=O)(O)O` [Example 5, N-Palmitoylethanolamide Phosphate] has a viability at 60 µM [2, 4] of 68%, a viability at 60 µM ([2]; B: compound added soon after exposure to Glu (500 μM, 5 min), 60 μM, % of control values, average of three tests, Glu alone 44, read-out: survived cells (%), treatment B, 60 μM) of 99% and a viability at 60 µM [2, 7] of 90%. For the same molecule, the solubility [1, 9] was > 10000 µg/mL, the solubility (Solubility in water; [10]) was > 1000 µg/mL and the “solubility in water” value (Solubility in water; water) was “poorly soluble”.

For `O=C(CCCCCCCC(=O)NCCO)NCCO` [Example 9, N,N'-Bis-(2-Hydroxyethyl)-Nonandiamide], the viability at 100 µM [2, 5] was 68%, the viability at 100 µM [2, 6] was 92% and the viability at 100 µM [2, 8] was 87%. The solubility [1, 9] was > 10000 µg/mL.

`N[C@@H](CCC(=O)O)C(=O)O` [Glu, glutamic acid, reference compound] showed a viability at 500 µM ([2]; read-out: survived cells (%), Glu alone, 60 μM column) of 44% and a viability at 500 µM ([2]; read-out: survived cells (%), Glu alone, 100 μM column) of 40%.

In the case of `CC(=O)OCCNC(=O)c1ccccc1` [Example 3, N-(2-Acetoxyethyl)-Benzoylamide], the solubility [1, 9] is reported as > 10000 µg/mL, the solubility [1, 3] is reported as > 10000 µg/mL and the “solubility in water” value (Solubility in water; water) is reported as “poorly soluble”.

In the case of `CCCCCCCCCCCCCCCC(=O)NCCOC(=O)CCC(=O)O` [Example 7, N-(2-Hydroxyethyl)-Palmitoylamide Succinate Acid], the solubility [1, 9] is reported as > 5000 µg/mL, the “solubility in water” value (Solubility in water; water) is reported as “poorly soluble” and the solubility (Solubility in water; water, as potassium salt, read-out: solubility in water as potassium salt) is reported as > 1000 µg/mL.

In the case of `CCCCC/C=C\C/C=C\C/C=C\C/C=C\CCCC(=O)NCCO` [Example 10, N-(2-Hydroxyethyl)-Arachidonamide], the viability at 60 µM ([2]; read-out: survived cells (%), treatment A, 60 μM) is reported as 95%, the solubility [1, 9] is reported as > 10000 µg/mL and the solubility ([1]; ethanol, read-out: solubility in ethanol) is reported as > 10000 µg/mL. For the same molecule, the “solubility in water” value (Solubility in water; water) was “poorly soluble”.

Reference: patent US5925678A, “Use of N-acyl derivatives of aminoalcohols in the manufacture of a medicament for practicing neuroprotective action in neuropathological states connected with excitotoxicity” (Lifegroup S.P.A., priority 1994, dated 1999)
